Calls of active or inactive are those of the source. The rule behind the calls is not given here.
Columns and labels:
[1] = target: Protein kinase C alpha type (Homo sapiens) (UniProt P17252); assay: Inhibition of PKCalpha (unknown origin) at 1 uM in presence of ATP relative to control; values are per cent of control
[2] = target: cAMP-dependent protein kinase catalytic subunit PRKX (Homo sapiens) (UniProt P51817); assay: Inhibition of PrKX (unknown origin) at 1 uM in presence of ATP relative to control; values are per cent of control
cAMP-dependent protein kinase catalytic subunit PRKX (Homo sapiens), sequence (P51817 whole entry): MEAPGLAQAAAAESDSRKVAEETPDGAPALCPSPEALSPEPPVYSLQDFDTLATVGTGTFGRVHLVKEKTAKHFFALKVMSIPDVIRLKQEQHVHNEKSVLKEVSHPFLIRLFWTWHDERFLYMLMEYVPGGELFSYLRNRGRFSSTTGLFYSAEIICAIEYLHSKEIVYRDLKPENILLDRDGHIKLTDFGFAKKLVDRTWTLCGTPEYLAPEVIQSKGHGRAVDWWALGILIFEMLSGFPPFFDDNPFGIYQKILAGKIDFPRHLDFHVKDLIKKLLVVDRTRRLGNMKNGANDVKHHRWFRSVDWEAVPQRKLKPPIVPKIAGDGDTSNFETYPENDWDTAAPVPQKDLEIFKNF

SW579 = assay: Inhibition of cell proliferation in human SW579 cells upto 10 umol/L incubated for 72 hrs by DAPI staining based analysis; format: functional; conditions: dose <= 10.0 µmol/L
[3] = target: Inhibitor of nuclear factor kappa-B kinase subunit alpha (Homo sapiens) (UniProt O15111); assay: Inhibition of IKKalpha (unknown origin) at 1 uM in presence of ATP relative to control; values are per cent of control
SCaBER = assay: Inhibition of cell proliferation in human SCaBER cells upto 10 umol/L incubated for 72 hrs by DAPI staining based analysis; format: functional; conditions: dose <= 10.0 µmol/L
[4] = Inhibition of cell proliferation in ETV6-NTRK3 fusion positive human MO-91 cells incubated for 72 hrs by DAPI staining based analysis; format: functional; conditions: MO-91, 72 h
JeKo-1 = assay: Inhibition of cell proliferation in human JeKo-1 cells upto 10 umol/L incubated for 72 hrs by DAPI staining based analysis; format: functional; conditions: dose <= 10.0 µmol/L
[5] = target: Dual specificity mitogen-activated protein kinase kinase 1 (Homo sapiens) (UniProt Q02750); assay: Inhibition of MEK1 (unknown origin) at 1 uM in presence of ATP relative to control; values are per cent of control
Dual specificity mitogen-activated protein kinase kinase 1 (Homo sapiens), sequence (Q02750 whole entry): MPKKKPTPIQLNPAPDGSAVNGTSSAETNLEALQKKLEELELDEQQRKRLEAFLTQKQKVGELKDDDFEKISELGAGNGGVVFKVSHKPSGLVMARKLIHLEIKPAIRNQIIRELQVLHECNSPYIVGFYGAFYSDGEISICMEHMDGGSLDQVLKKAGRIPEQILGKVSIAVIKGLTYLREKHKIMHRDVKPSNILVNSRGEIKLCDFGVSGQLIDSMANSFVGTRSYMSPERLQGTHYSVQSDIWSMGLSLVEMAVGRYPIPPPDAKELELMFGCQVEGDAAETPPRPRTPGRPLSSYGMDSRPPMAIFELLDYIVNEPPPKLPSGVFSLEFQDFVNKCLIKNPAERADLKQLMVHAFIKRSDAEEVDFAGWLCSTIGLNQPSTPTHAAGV

[6] = target: Cytoplasmic tyrosine-protein kinase BMX (Homo sapiens) (UniProt P51813); assay: Inhibition of Bmx (unknown origin) at 1 uM in presence of ATP relative to control
[7] = Oral bioavailability in dog at 10 mg/kg administered as 0.5% carboxymethylcellulose 0.02% sodium dodecyl sulfate formulation by LC-MS analysis; format: ADME, organism-based, Canis lupus familiaris; conditions: in vivo
TF-1 = assay: Inhibition of cell proliferation in human TF-1 cells upto 10 umol/L incubated for 72 hrs by DAPI staining based analysis; format: functional; conditions: dose <= 10.0 µmol/L
[8] = target: MAP kinase-interacting serine/threonine-protein kinase 2 (Homo sapiens) (UniProt Q9HBH9); assay: Inhibition of MKNK2 (unknown origin) at 1 uM in presence of ATP relative to control; values are per cent of control
MAP kinase-interacting serine/threonine-protein kinase 2 (Homo sapiens), sequence (Q9HBH9 whole entry, looked up, canonical isoform): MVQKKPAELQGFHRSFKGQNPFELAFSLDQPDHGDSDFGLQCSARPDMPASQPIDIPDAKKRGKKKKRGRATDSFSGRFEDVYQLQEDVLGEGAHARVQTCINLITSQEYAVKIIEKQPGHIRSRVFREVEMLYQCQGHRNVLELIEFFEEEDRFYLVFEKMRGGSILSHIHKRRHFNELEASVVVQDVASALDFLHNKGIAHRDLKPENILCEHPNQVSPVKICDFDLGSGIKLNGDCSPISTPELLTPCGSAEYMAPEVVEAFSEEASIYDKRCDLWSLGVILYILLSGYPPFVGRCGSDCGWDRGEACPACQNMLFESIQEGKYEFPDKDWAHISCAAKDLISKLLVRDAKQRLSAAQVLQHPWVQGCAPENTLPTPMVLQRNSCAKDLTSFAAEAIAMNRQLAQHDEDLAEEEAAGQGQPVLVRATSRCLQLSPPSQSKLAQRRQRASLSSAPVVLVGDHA

[9] = target: Casein kinase I isoform delta (Homo sapiens) (UniProt P48730); assay: Inhibition of CK1delta (unknown origin) at 1 uM in presence of ATP relative to control; values are per cent of control
Casein kinase I isoform delta (Homo sapiens), sequence (P48730 whole entry, looked up, canonical isoform): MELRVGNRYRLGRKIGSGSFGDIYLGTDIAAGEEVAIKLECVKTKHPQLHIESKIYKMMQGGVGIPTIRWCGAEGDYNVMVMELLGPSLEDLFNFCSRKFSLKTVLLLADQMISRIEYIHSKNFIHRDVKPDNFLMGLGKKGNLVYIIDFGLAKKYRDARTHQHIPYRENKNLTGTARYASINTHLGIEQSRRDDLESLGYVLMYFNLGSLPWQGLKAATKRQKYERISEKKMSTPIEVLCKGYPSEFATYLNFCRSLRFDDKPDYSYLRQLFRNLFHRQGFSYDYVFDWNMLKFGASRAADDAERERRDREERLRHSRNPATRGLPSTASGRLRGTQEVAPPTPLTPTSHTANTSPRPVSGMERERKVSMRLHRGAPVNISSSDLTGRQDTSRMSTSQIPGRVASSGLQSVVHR

[10] = target: Protein kinase C beta type (Homo sapiens) (UniProt P05771); assay: Inhibition of PKCbetall (unknown origin) at 1 uM in presence of ATP relative to control; values are per cent of control
Protein kinase C beta type (Homo sapiens), sequence (P05771 2-671 limits assumed): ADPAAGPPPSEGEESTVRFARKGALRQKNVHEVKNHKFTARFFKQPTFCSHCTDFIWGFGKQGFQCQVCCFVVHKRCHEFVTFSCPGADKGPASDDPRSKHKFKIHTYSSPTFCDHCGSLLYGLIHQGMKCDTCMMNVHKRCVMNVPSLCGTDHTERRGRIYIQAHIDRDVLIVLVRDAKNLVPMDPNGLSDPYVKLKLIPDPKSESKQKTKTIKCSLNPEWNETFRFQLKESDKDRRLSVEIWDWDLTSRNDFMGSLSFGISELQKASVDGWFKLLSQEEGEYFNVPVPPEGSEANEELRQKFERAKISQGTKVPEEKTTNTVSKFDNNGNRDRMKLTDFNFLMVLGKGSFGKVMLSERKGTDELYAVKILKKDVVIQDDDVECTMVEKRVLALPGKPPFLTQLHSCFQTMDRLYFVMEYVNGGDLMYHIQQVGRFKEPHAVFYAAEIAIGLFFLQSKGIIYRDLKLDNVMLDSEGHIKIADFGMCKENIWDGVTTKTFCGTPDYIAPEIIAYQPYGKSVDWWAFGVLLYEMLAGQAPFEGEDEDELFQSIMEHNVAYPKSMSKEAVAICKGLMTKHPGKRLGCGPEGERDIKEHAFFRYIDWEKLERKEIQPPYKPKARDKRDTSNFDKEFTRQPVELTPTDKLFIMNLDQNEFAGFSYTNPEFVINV

[11] = target: MAP kinase-activated protein kinase 2 (Homo sapiens) (UniProt P49137); assay: Inhibition of MAPKAP-K2 (unknown origin) at 1 uM in presence of ATP relative to control; values are per cent of control
[12] = Oral bioavailability in monkey at 10 mg/kg administered as 20% hydroxypropyl-beta-cyclodextrin formulation by LC-MS analysis; format: ADME, organism-based, Macaca mulatta; conditions: rhesus monkey, in vivo
SK-BR-3 = assay: Inhibition of cell proliferation in human SK-BR-3 cells upto 10 umol/L incubated for 72 hrs by DAPI staining based analysis; format: functional; conditions: dose <= 10.0 µmol/L
[13] = target: Serine/threonine-protein kinase pim-3 (Homo sapiens) (UniProt Q86V86); assay: Inhibition of Pim-3 (unknown origin) at 1 uM in presence of ATP relative to control; values are per cent of control
[14] = target: Protein kinase C delta type (Homo sapiens) (UniProt Q05655); assay: Inhibition of PKCdelta (unknown origin) at 1 uM in presence of ATP relative to control; values are per cent of control
Protein kinase C delta type (Homo sapiens), sequence (Q05655 whole entry, looked up): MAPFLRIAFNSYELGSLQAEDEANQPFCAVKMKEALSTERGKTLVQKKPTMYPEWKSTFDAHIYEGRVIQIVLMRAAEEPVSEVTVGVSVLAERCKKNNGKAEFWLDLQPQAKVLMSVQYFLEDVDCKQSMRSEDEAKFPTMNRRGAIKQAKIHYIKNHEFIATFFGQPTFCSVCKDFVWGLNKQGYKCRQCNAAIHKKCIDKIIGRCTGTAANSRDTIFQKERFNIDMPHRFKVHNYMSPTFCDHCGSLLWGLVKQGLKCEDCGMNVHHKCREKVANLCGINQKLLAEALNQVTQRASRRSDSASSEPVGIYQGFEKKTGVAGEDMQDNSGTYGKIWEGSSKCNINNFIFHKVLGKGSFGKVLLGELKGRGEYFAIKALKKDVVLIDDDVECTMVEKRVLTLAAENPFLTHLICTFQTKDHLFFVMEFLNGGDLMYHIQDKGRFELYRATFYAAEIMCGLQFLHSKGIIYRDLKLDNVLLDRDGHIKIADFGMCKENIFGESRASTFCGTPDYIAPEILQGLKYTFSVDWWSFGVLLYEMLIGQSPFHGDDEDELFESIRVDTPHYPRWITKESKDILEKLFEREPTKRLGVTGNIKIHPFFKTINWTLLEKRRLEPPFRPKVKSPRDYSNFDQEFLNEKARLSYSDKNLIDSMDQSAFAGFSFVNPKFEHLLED

SCC-25 = assay: Inhibition of cell proliferation in human SCC-25 cells upto 10 umol/L incubated for 72 hrs by DAPI staining based analysis; format: functional; conditions: dose <= 10.0 µmol/L
[15] = target: Tyrosine-protein kinase Yes (Homo sapiens) (UniProt P07947); assay: Inhibition of Yes (unknown origin) at 1 uM in presence of ATP relative to control; values are per cent of control
Tyrosine-protein kinase Yes (Homo sapiens), sequence (P07947 2-543 limits assumed): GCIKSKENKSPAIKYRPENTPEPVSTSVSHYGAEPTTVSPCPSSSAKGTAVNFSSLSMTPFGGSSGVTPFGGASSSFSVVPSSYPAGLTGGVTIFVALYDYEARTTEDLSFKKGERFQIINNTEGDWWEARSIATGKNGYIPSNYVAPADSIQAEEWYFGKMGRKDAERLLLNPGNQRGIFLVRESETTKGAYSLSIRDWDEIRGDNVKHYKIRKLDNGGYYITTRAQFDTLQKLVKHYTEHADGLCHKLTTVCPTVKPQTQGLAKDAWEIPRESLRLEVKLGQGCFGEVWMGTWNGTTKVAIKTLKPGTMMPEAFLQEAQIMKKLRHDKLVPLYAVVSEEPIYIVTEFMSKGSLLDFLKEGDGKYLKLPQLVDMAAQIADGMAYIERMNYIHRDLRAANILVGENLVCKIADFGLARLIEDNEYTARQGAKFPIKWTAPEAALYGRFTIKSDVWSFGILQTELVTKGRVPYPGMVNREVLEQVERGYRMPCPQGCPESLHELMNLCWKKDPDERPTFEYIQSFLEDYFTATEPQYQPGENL

[16] = Cmax in adult patient with recurrent LMNA-NTRK1 rearranged colorectal cancer at 50 mg administered twice a day as powder-in-capsule or liquid formulation for 1 day by LC-MS/MS analysis; format: ADME; conditions: human, in vivo, po
Rec1 = assay: Inhibition of cell proliferation in human REC1 cells upto 10 umol/L incubated for 72 hrs by DAPI staining based analysis; format: functional; conditions: dose <= 10.0 µmol/L
[17] = target: Serine/threonine-protein kinase WNK3 (Homo sapiens) (UniProt Q9BYP7); assay: Inhibition of WNK3 (unknown origin) at 1 uM in presence of ATP relative to control; values are per cent of control
[18] = target: ALK tyrosine kinase receptor (Homo sapiens) (UniProt Q9UM73); assay: Inhibition of ALK (unknown origin) at 1 uM in presence of ATP relative to control; values are per cent of control
[19] = target: Serine/threonine-protein kinase D2 (Homo sapiens) (UniProt Q9BZL6); assay: Inhibition of PKD2 (unknown origin) at 1 uM in presence of ATP relative to control; values are per cent of control
K562 = assay: Inhibition of cell proliferation in human K562 cells upto 10 umol/L incubated for 72 hrs by DAPI staining based analysis; format: functional; conditions: dose <= 10.0 µmol/L
NIH3T3 = assay: In vivo inhibition of […] in nu/nu NCr mouse implanted with mouse NIH3T3 cells harboring extracellular domain deleted […] G595R mutant assessed as reduction in […] phosphorylation administered orally twice daily for 3 days and measured after 2 hrs post last dose by ELISA; format: functional; conditions: dose 10-100 mg/kg, route po, time 3.0 day
[20] = target: Dual specificity protein kinase CLK2 (Homo sapiens) (UniProt P49760); assay: Inhibition of CLK2 (unknown origin) at 1 uM in presence of ATP relative to control; values are per cent of control
SW1353 = assay: Inhibition of cell proliferation in human SW1353 cells upto 10 umol/L incubated for 72 hrs by DAPI staining based analysis; format: functional; conditions: dose <= 10.0 µmol/L
[21] = target: Serine/threonine-protein kinase STK11 (Homo sapiens) (UniProt Q15831); assay: Inhibition of LKB1 (unknown origin) at 1 uM in presence of ATP relative to control; values are per cent of control
Serine/threonine-protein kinase STK11 (Homo sapiens), sequence (Q15831 whole entry): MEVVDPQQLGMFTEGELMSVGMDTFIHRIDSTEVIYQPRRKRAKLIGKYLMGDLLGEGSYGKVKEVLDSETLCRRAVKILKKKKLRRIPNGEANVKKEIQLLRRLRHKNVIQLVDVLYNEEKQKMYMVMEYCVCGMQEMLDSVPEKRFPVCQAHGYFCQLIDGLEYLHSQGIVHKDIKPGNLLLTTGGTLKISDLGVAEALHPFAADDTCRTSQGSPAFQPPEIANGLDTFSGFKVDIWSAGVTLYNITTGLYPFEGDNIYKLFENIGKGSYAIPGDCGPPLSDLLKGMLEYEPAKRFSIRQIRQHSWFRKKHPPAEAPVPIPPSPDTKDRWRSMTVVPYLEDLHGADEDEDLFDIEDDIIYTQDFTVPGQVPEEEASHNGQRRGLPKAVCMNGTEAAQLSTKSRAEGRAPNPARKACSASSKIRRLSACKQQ

C[C@@H]1CCc2ncc(F)cc2[C@H]2CCCN2c2ccn3ncc(c3n2)C(=O)N1 [SELITRECTINIB]
residual activity [1]: 107%
residual activity [2]: 118%
inhibition (SW579): inactive
residual activity [3]: 96.5%
inhibition (SCaBER): inactive
IC50 [4]: ≤ 5 nM
inhibition (JeKo-1): inactive
residual activity [5]: 122%
inhibition [6]: 15%
bioavailability [7]: 42%
inhibition (TF-1): inactive
residual activity [8]: 100%
residual activity [9]: 110%
residual activity [10]: 90.5%
residual activity [11]: 102%
bioavailability [12]: 2%
inhibition (SK-BR-3): inactive
residual activity [13]: 103%
residual activity [14]: 108%
inhibition (SCC-25): inactive
residual activity [15]: 82%
Cmax [16]: 350 ng/mL
inhibition (Rec1): inactive
residual activity [17]: 110%
residual activity [18]: 50%
residual activity [19]: 110%
inhibition (K562): inactive
inhibition (NIH3T3): Dose-Dependent Effect
residual activity [20]: 96.5%
inhibition (SW1353): inactive
residual activity [21]: 108%

From ChEMBL document CHEMBL5678816, “A Next-Generation TRK Kinase Inhibitor Overcomes Acquired Resistance to Prior TRK Kinase Inhibition in Patients with TRK Fusion-Positive Solid Tumors” (Cancer Discov, 2017)
